Source: article PMC7570544, “Biological Activities and ADMET-Related Properties of Novel Set of Cinnamanilides” (Molecules, 2020)
Converted amounts (≈) assume the structure as drawn.

tested on: Staphylococcus aureus ATCC 29213; experiment: In vitro antibacterial evaluation, broth microdilution MIC, reference strain; assay type: cell-based; conditions: Staphylococcus aureus, ATCC29213; S. aureus ATCC 29213

Structure (SMILES) | MIC [µM]
O=C(/C=C/c1ccccc1)Nc1c(Br)cc(C(F)(F)F)cc1Br [Compound 19, (2E)-N-[2,6-Dibromo-4-(trifluoromethyl)phenyl]-3-phenylprop-2-enamide] | > 574
O=C(/C=C/c1ccccc1)Nc1ccc(Br)cc1C(F)(F)F [Compound 16, (2E)-N-[4-Bromo-2-(trifluoromethyl)phenyl]-3-phenylprop-2-enamide] | > 696

tested on: methicillin-resistant Staphylococcus aureus (MRSA) 63718; experiment: In vitro antibacterial evaluation, broth microdilution MIC, MRSA isolate 63718; assay type: cell-based; conditions: clinical isolate MRSA 63718

Structure (SMILES) | MIC [µM]
CC1(C)S[C@@H]2[C@H](NC(=O)[C@H](N)c3ccccc3)C(=O)N2[C@H]1C(=O)O [AMP, ampicillin, reference compound] | 45.8 (≈ 16 µg/mL)
O=C(/C=C/c1ccccc1)Nc1c(Br)cc(C(F)(F)F)cc1Br [Compound 19, (2E)-N-[2,6-Dibromo-4-(trifluoromethyl)phenyl]-3-phenylprop-2-enamide] | > 574
O=C(/C=C/c1ccccc1)Nc1ccc(Br)cc1C(F)(F)F [Compound 16, (2E)-N-[4-Bromo-2-(trifluoromethyl)phenyl]-3-phenylprop-2-enamide] | > 696

tested on: methicillin-resistant Staphylococcus aureus (MRSA) SA 630; experiment: In vitro antibacterial evaluation, broth microdilution MIC, MRSA isolate SA 630; assay type: cell-based; conditions: clinical isolate MRSA SA 630

Structure (SMILES) | MIC [µM]
CC1(C)S[C@@H]2[C@H](NC(=O)[C@H](N)c3ccccc3)C(=O)N2[C@H]1C(=O)O [AMP, ampicillin, reference compound] | 45.8 (≈ 16 µg/mL)
O=C(/C=C/c1ccccc1)Nc1c(Br)cc(C(F)(F)F)cc1Br [Compound 19, (2E)-N-[2,6-Dibromo-4-(trifluoromethyl)phenyl]-3-phenylprop-2-enamide] | > 574
O=C(/C=C/c1ccccc1)Nc1ccc(Br)cc1C(F)(F)F [Compound 16, (2E)-N-[4-Bromo-2-(trifluoromethyl)phenyl]-3-phenylprop-2-enamide] | > 696

tested on: Mycobacterium tuberculosis H37Ra/ATCC 25177; experiment: In vitro antimycobacterial evaluation; assay type: cell-based; conditions: M. tuberculosis H37Ra
From the text: Isoniazid (Sigma) was used as the standard.

Structure (SMILES) | MIC [µM]
O=C(/C=C/c1ccccc1)Nc1c(Br)cc(C(F)(F)F)cc1Br [Compound 19, (2E)-N-[2,6-Dibromo-4-(trifluoromethyl)phenyl]-3-phenylprop-2-enamide] | > 287
NNC(=O)c1ccncc1 [INH, isoniazid, reference compound] | 36.6 (≈ 5.02 µg/mL)
O=C(/C=C/c1ccccc1)Nc1ccc(Br)cc1C(F)(F)F [Compound 16, (2E)-N-[4-Bromo-2-(trifluoromethyl)phenyl]-3-phenylprop-2-enamide] | > 348

tested on: THP1-Blue™ NF-κB cell line; experiment: In vitro cell viability assay (WST-1); assay type: cell-based; conditions: Homo sapiens; THP1-Blue NF-κB cells, 24 h incubation, WST-1, mean ± SEM, n = 6; read-out: Tox IC50 ± SEM
Experimental: The cytotoxic effect of the tested compounds was specified on THP1-Blue™ NF-κB cell line (Invivogen; San Diego, CA, USA), as described previously. […] The final concentration of DMSO was 0.1% (v/v) in each well. The viability analysis was performed after 24 h incubation with the tested substances using the WST-1 Cell Proliferation Reagent kit (Roche Diagnostics, Basel, Switzerland) according to the manufacturer’s manual. […] The IC50 values were calculated by four-parameter logistic (4PL) analysis from obtained viability curves by GraphPad Prism 8.0.1 (San Diego, CA, USA) software.

Structure (SMILES) | IC50 [µM]
O=C(/C=C/c1ccccc1)Nc1c(Br)cc(C(F)(F)F)cc1Br [Compound 19, (2E)-N-[2,6-Dibromo-4-(trifluoromethyl)phenyl]-3-phenylprop-2-enamide] | > 20
O=C(/C=C/c1ccccc1)Nc1ccc(Br)cc1C(F)(F)F [Compound 16, (2E)-N-[4-Bromo-2-(trifluoromethyl)phenyl]-3-phenylprop-2-enamide] | > 20

tested on: not listed separately; experiment: Lipophilicity determination by RP-TLC; assay type: physicochemical; parameters: key to RM (MeOH:H2O): RM = log(1/RF - 1), from RP-18 TLC; conditions: 72:28 MeOH:H2O
Experimental: RM values were determined from the RP-18 TLC measurements. […] The volatiles were carefully evaporated, and the plate was developed by MeOH (100%) or MeOH: H2O-HPLC (72:28 v/v) or MeOH: NaOAc buffer, pH 7.4 (72:28 v/v). After drying, the spots were visualized under UV (λ = 365 nm). RM data were obtained from equation: RM = log(1/RF-1). Each experiment was repeated three times.

Structure (SMILES) | RM (MeOH:H2O)
O=C(/C=C/c1ccccc1)Nc1c(Br)cc(C(F)(F)F)cc1Br [Compound 19, (2E)-N-[2,6-Dibromo-4-(trifluoromethyl)phenyl]-3-phenylprop-2-enamide] | 0.5301
O=C(/C=C/c1ccccc1)Nc1ccc(Br)cc1C(F)(F)F [Compound 16, (2E)-N-[4-Bromo-2-(trifluoromethyl)phenyl]-3-phenylprop-2-enamide] | 0.5730

same assay, conditions: 72:28 MeOH:NaOAc buffer (pH 7.4)

Structure (SMILES) | RM (pH 7.4)
O=C(/C=C/c1ccccc1)Nc1c(Br)cc(C(F)(F)F)cc1Br [Compound 19, (2E)-N-[2,6-Dibromo-4-(trifluoromethyl)phenyl]-3-phenylprop-2-enamide] | 0.3733
O=C(/C=C/c1ccccc1)Nc1ccc(Br)cc1C(F)(F)F [Compound 16, (2E)-N-[4-Bromo-2-(trifluoromethyl)phenyl]-3-phenylprop-2-enamide] | 0.4273

same assay, conditions: 100% MeOH

Structure (SMILES) | RM (100% MeOH)
O=C(/C=C/c1ccccc1)Nc1c(Br)cc(C(F)(F)F)cc1Br [Compound 19, (2E)-N-[2,6-Dibromo-4-(trifluoromethyl)phenyl]-3-phenylprop-2-enamide] | −0.5206
O=C(/C=C/c1ccccc1)Nc1ccc(Br)cc1C(F)(F)F [Compound 16, (2E)-N-[4-Bromo-2-(trifluoromethyl)phenyl]-3-phenylprop-2-enamide] | −0.5624

tested on: not given; experiment: not given; conditions: RP-HPLC, 72:28 MeOH:H2O

Structure (SMILES) | Logk
O=C(/C=C/c1ccccc1)Nc1c(Br)cc(C(F)(F)F)cc1Br [Compound 19, (2E)-N-[2,6-Dibromo-4-(trifluoromethyl)phenyl]-3-phenylprop-2-enamide] | 0.4321
O=C(/C=C/c1ccccc1)Nc1ccc(Br)cc1C(F)(F)F [Compound 16, (2E)-N-[4-Bromo-2-(trifluoromethyl)phenyl]-3-phenylprop-2-enamide] | 0.4683

tested on: not listed separately; experiment: physchem; conditions: pH 6.5

Structure (SMILES) | chromatographic logD
O=C(/C=C/c1ccccc1)Nc1c(Br)cc(C(F)(F)F)cc1Br [Compound 19, (2E)-N-[2,6-Dibromo-4-(trifluoromethyl)phenyl]-3-phenylprop-2-enamide] | 0.473
O=C(/C=C/c1ccccc1)Nc1ccc(Br)cc1C(F)(F)F [Compound 16, (2E)-N-[4-Bromo-2-(trifluoromethyl)phenyl]-3-phenylprop-2-enamide] | 0.51

same assay, conditions: pH 7.4

Structure (SMILES) | chromatographic logD
O=C(/C=C/c1ccccc1)Nc1c(Br)cc(C(F)(F)F)cc1Br [Compound 19, (2E)-N-[2,6-Dibromo-4-(trifluoromethyl)phenyl]-3-phenylprop-2-enamide] | 0.494
O=C(/C=C/c1ccccc1)Nc1ccc(Br)cc1C(F)(F)F [Compound 16, (2E)-N-[4-Bromo-2-(trifluoromethyl)phenyl]-3-phenylprop-2-enamide] | 0.532
